Data taken from ChEMBL document CHEMBL1141075, “4-Oxo-4,7-dihydrothieno[2,3-b]pyridines as non-nucleoside inhibitors of human cytomegalovirus and related herpesvirus polymerases” (J Med Chem, 2005).

How the values were obtained:
[1] = target: T1, DNA polymerase catalytic subunit (Human cytomegalovirus (strain AD169) (HHV-5) (Human herpesvirus 5), UniProt P08546); experiment: Inhibition of human cytomegalovirus DNA polymerase (95 uL) activity in a solution containing […] HEPES (pH 7.5), incubation for 12 minutes at 26 degrees C; set-up: species or system Human betaherpesvirus 5
T1 sequence (P08546 whole entry): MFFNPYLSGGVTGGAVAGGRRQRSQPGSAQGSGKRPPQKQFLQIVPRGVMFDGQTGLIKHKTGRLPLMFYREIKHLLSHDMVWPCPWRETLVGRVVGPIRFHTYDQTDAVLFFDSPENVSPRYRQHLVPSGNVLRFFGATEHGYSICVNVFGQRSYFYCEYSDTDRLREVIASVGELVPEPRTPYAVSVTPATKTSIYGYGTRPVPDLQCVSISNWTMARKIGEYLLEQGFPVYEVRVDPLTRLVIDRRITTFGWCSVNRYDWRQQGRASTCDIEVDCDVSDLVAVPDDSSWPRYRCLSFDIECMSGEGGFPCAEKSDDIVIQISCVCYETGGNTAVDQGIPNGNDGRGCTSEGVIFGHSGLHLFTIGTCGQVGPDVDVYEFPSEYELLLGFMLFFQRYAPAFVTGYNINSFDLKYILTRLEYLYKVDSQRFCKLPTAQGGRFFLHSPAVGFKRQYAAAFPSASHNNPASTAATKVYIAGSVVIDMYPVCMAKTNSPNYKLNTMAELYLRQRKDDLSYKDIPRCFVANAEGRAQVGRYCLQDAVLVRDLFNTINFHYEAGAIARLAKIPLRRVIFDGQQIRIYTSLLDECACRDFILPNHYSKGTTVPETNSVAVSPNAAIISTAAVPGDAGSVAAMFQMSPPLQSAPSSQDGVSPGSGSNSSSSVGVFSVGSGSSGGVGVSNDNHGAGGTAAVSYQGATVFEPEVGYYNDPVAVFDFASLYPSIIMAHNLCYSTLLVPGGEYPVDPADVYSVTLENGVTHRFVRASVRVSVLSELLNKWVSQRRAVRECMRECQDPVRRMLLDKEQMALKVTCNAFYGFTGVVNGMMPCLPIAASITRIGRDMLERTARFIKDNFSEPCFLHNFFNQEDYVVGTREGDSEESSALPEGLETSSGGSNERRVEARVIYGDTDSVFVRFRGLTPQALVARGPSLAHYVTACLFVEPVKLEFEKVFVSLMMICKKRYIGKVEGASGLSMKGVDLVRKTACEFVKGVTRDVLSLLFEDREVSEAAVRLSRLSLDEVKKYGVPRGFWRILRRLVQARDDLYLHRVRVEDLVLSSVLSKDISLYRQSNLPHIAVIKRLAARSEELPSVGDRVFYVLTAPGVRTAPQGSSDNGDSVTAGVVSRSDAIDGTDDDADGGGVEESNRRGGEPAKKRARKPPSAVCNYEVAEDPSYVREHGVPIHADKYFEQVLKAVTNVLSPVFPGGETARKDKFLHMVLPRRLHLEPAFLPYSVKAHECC

[2] = target: T2, DNA polymerase delta catalytic subunit (Homo sapiens, UniProt P28340); experiment: Inhibition of human delta DNA polymerase (95 uL) activity in a solution containg […] HEPES (pH 7.5) upon incubation for 12 minutes at 26 degrees C with the compound dissolved in DMSO
T2 sequence (P28340 whole entry): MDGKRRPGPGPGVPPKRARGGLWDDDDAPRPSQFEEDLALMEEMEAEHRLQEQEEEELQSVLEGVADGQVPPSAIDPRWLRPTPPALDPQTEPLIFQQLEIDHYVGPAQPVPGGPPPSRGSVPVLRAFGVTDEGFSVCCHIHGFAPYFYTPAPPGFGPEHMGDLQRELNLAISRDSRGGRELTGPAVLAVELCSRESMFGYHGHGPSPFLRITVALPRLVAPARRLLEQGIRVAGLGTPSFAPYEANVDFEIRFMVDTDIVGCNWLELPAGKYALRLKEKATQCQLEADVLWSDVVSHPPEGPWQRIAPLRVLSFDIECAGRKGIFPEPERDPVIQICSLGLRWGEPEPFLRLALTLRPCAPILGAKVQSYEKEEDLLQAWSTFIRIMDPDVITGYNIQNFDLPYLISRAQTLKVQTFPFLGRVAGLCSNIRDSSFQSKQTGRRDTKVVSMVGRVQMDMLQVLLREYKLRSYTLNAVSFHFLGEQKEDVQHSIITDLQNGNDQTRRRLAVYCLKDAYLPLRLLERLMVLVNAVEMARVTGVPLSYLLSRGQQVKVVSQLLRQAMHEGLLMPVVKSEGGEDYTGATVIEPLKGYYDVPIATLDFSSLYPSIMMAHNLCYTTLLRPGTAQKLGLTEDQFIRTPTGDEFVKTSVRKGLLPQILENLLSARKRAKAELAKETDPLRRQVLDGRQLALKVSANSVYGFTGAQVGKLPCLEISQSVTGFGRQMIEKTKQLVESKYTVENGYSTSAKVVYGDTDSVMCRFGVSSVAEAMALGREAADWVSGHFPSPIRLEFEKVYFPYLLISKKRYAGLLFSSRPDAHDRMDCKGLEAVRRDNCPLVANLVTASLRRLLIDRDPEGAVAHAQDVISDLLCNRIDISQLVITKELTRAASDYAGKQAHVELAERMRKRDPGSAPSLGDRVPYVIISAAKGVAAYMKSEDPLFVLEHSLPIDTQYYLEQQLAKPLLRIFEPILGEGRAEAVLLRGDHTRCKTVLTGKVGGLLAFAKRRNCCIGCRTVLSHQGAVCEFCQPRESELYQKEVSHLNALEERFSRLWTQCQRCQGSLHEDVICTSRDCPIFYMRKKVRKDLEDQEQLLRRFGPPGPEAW

SMILES | IC50 [1] [nM] | IC50 [2] [nM]
Cn1cc(C(=O)NCc2ccc(Cl)cc2)c(=O)c2cc(CN3CCOCC3)ccc21 | 700 | > 40000
O=C(NCc1ccc(Cl)cc1)c1cnc2ccc(CCCO)cc2c1O | 400 | > 40000
Cn1cc(C(=O)NCc2ccc(Cl)cc2)c(=O)c2cc(CN3CCOCC3)sc21 | – | > 40000
